Measurements published in patent US12171813B2, “Methods of and compositions for reducing gene expression and/or activity” (Christiana Care Gene Editing Institute, Inc., priority 2021, dated 2024).

Test system: NFE2L2 gene
Test: Screening of SureKill guide RNAs in the NFE2L2 gene for ability to induce indels
Type: cell-based, Human
Conditions: transfections of individual guide RNAs (spCas9 RNP); NCI-H1703 clone 44-25 cells; DECODR
Protocol: Human lung squamous cell carcinoma NCI-H1703 clone 44-25 cells were derived from NCI-H1703 cells (#CRL-5889) which were purchased from ATCC (Manassas, VA, USA). NCI-H1703 clone 44-25 cells contains R34G mutation (C 4 G) in NFE2L2 gene. H1703 clone 44-25 cells were cultured in ATCC formulation RPMI-1640 with 10% FBS. T75 flasks were used and cells were split 1:5 upon reaching 90% confluency. Human lung adenocarcinoma cells (Dist. Lot. No. LG0703-F948-PDC) were acquired from the National Institute of Health's National Cancer Institute's Patient-Derived Models Repository (PDMR). This PDMR cell line contains the L858R mutation (T 4 G) in the EGFR gene. The PDMR cells were maintained in Advanced DMEM/F12 media containing 10% FBS, 0.4 μg/mL hydrocortisone, 0.01 μg/mL EGF Recombinant Human Protein, 24 μg/mL adenine, and 2 mM L-Glutamine. T75s were used and cells were split 1:3 upon reaching 90% confluency. All cultures were maintained in cell culture incubators at 37° C. and 5% CO2.
Ribonucleoproteins (RNP) are complexed by incubating 250 pmol of purified synthetic gRNA (Synthego Corporation, Redwood City, CA) with 50 pmol of purified spCas9 (Synthego Corporation, Redwood City, CA) at room temperature in nuclease-free 1× TE buffer for 15 minutes.
Transfections were carried out using the Lonza Nuclefector 4d. Cultures in t75s at 90% confluence were split 1:2 24 hours prior to transfection. RNPs were complexed at 250:50 pmol for 30 minutes prior to transfection, during which time cells were harvested and counted. All reactions were 100 μL and contained 1 e6 cells. Lonza SF solution and Nucleofector program CM-130 were used in all transfections of the H1703 cell line. Lonza SE solution and Nucleofector program CA-137 were used in all transfections of the PDMR. After transfection, 500 μL of media that had been equilibrated to cell culture CO2 and temperature conditions was added to each 100 μL cuvettes. Cuvettes were then placed in the incubator. After 20 minutes, the entire content of each cuvette was seeded into 3 mL of media in a 6 well plate. After 72 hours, samples were dissociated using 200 μL Trypsin 0.25% for 5 minutes. 800 μL culture media was used to quench and split into 1.5 mL tubes each containing 500 μL of the sample. Tubes were spun at 300×g for 5 minutes. One of the tubes was placed in the −20° C. freezer and the other was resuspended in 500 μL of Trizol for RNA extraction and cDNA synthesis.
All sequencing was performed on the Applied Biosystems SeqStudio. The BigDye Terminator v3.1 Cycle Sequencing Kit was used to prepare samples for sequencing. Resulting sequences were analyzed with DECODR to determine indel rates (Bloh et al., CRISPR J. 4:120-31 (2021)).
In some cancers, human NRF2 contains a mutation, R34G, that creates a novel PAM site making it a targetable sequence by CRISPR. By combining the R34G-targeting CRISPR with another CRISPR of high efficiency in a downstream intronic region, exon skipping can be induced, resulting in a higher efficiency of functional knockout than the R34G targeting CRISPR alone. To find a suitable SureKill guide RNA (gRNA) to pair with the R34G targeting CRISPR, we selected the intron between exons 3 and 4 (FIG. 2). A series of gRNAs were created in this region and screened for their ability to induce indels, a measure of their activity (Table 2).
In Table 2, all sequences are listed from 5′ to 3′. Indel %, a measure of CRISPR activity, is based on transfections of individual guide RNAs. All guide RNAs, with the exception of R34G, were designed in the intron between exons 3 and 4.

For “R34G gRNA: guide RNA GATATAGATCTTGGAGTAAG, SEQ ID NO:1, targets NRF2 R34G mutation (listed as DNA, chemistry not given here)”, the indel % was 83%.
